# Laboratory results taken from patent publication US6790645B2, “Oxidation of a cyclohexanone derivative using a brevibacterium cyclohexanone monooxygenase” (E. I. du Pont de Nemours and Company, priority 1999, dated 2004).
# Legend:
# [1] = system: Brevibacterium monooxygenase 1 (ORF 1.3); assay: Spectrophotometric monooxygenase assay (NADPH oxidation at 340 nm), substrate specificity for cyclic ketones, monooxygenase 1; assay type: biochemical, Brevibacterium sp HCU; conditions: NADPH 0.3 mM, pH7, 30° C., activities below 2.0 could reflect contaminants
# Protocol: (§1) The cyclohexanone monooxygenase activity of each overexpressed enzyme was assayed spectrophotometrically at 340 nm by monitoring the oxidation of NADPH. In a spectrophotometer cuvette containing 50 mM Tris-HCl, 50 mM K Acetate pH7 at 30° C. NADPH 0.3 mM and 20-50 μg of homogenous monooxygenase the reaction was initiated by the addition of 1 mM of cyclohexanone. Substrate specificity of each enzyme was tested with other cyclic ketones added at 0.1 or 0.5 mM.
# (§2) Expression of the His6-tagged proteins was done by growing the cells carrying the expression plasmids in 1 l of Luria-Bertani broth (Miller 1972) containing Ampicillin (100 μg/ml) and tetracyclin (10 μg/ml) at 28° C. Riboflavin (1 μg/ml) was also added to the medium since both monooxygenases are flavoproteins. When the absortion reached 0.5 at 600 nm, 1 mM isopropy-thio-b-galactoside (IPTG) was added to the culture. Cells were harvested 1.5 hr later, resuspended in 2 ml of 300 mM NaCl 5% glycerol 20 mM Tris-HCl pH 8.0 (Buffer A) containing 10 mM EDTA and 100 μg lysozyme and disrupted by three freeze/thaw cycles. Nucleic acids were digested by addition of MgCl2 (20 mM) RNAseA and DNAse I (10 μg each). The particulate fraction was removed by centrifugation at 14,000 RPM and the supernatant was mixed for 1 hr at 4° C. with 100 μl of a metal chelation agarose (Ni-NTA Superflow Qiagen, Valencia, Calif.) saturated with Ni(II) and equilibrated Buffer A containing 5 mM imidazole. The resin was washed bathchwise with 10 ml each of Buffer A containing 5, 10, 15, 20, 40, 80, 150 and 300 mM respectively. The bound proteins were eluted between 80 and 150 mM imidazole. Eluted proteins were concentrated by ultrafiltration with a Centricon device (cut off 10,000 Da, Amicon) and the buffer replaced by Buffer A. Homogeneity of the overexpressed proteins is shown in FIG. 3, which show a gel electrophoresis separation of proteins from control E. coli (lane 1), E. coli expressing ORF 1.3 (lane 2) and E. coli expressing ORF 2.4 (lane 3).
# (§3) Each monooxygenase oxidized cyclohexanone as measured spectrophoto-metrically by monitoring the oxidation of NADPH at 340 nm. No activity was observed when NADPH was replaced by NADH. The product of the cyclohexanone oxidation was confirmed to be caprolactone by GC-MS analysis. Monooxygenase 1 and 2 have different substrate specificity relative to the number of carbon atoms, the oxidation or the substitution of the ring.
# [2] = system: Brevibacterium monooxygenase 2 (ORF 2.4); assay: Spectrophotometric monooxygenase assay (NADPH oxidation at 340 nm), substrate specificity for cyclic ketones, monooxygenase 2; assay type: biochemical, Brevibacterium sp HCU; conditions: NADPH 0.3 mM, pH7, 30° C., activities below 2.0 could reflect contaminants
# Protocol: as §1, §2, §3
# [3] = system: E. coli strains carrying plasmids pPCB1 and pPCB2 that express the monooxygenase ORF 1.3 and ORF 2.4; assay: Conversion of cyclohexanone into caprolactone by cell suspensions, GC-MS; assay type: cell-based; conditions: 100 ppm cyclohexanone, M9 medium with 0.2% glucose, IPTG-induced cells (FIG. 5)
# Protocol: Confirmation of the oxidation of cyclohexanone into caprolactone was determined by GC-Mass Spectrometry on a HP 5890 Gas Chromatograph with HP 5971 mass selective detector equipped with a HP-1 capillary column (Hewlett Packard). Prior to analysis, samples were acidified to pH 3 by HCl, extracted by dichloromethane three times, dried with MgSO4 and filtered.
# Twenty ml cultures of E. coli strains carrying plasmids pPCB1 and pPCB2 that express the monooxygenase ORF 1.3 and ORF 2.4 respectively were grown at 30° C. in LB medium containing Ampicillin (100 μg/ml) and tetracyclin (10 μg/ml). When the absorbance reached 0.1 at 600 nm, 1 mM IPTG was added to the culture to induce the monooxygenases. After 1 hr, the cultures were chilled and washed twice with M9 mineral medium (Sambrook, J., Fritsch, E. F. and Maniatis, T. Molecular Cloning: A Laboratory Manual, Second Edition, Cold Spring Harbor Laboratory Press, Cold Spring Harbor (1989)) and resuspended in 2 ml of the same medium containing 0.2% glucose and 100 ppm of cyclohexanone. After one hr the cells were removed from the culture by centrifugation and supernatant was analyzed by GC-MS as described in the General Methods. The GC-MS analysis indicated the disappearance of cyclohexanone and the appearance of caprolactone. […]
Compound,Mono 1 rate ([1]; substrate 0.1 mM) [min⁻¹],Mono 1 rate ([1]; substrate 0.5 mM) [min⁻¹],Mono 2 rate ([2]; substrate 0.1 mM) [min⁻¹],Mono 2 rate ([2]; substrate 0.5 mM) [min⁻¹],time until all cyclohexanone was oxidized [3]
O=C1CCCCCCC1 [cyclooctanone],0.9,0.4,1.3,1.3,–
O=C1CCCCCCCCCCC1 [cyclododecanone],1,0.9,1.2,1.8,–
O=C1CCCCC1 [cyclohexanone],160,290,100,100,about 75 min
"O=C1CCC(=O)CC1 [1,4-cyclohexanedione]",130,210,53,88,–
CC1CCCCC1=O (centres unmarked) [2-methylcyclohexanone],250,260,37,97,–
CC1CCCC1=O (centres unmarked) [2-methylcyclopentanone],40,110,120,110,–
O=C1C=CCCC1 [cyclohex-2-ene-1-one],2.3,1.9,64,80,–
O=C1CCCCC1C1=CCCCC1 (centres unmarked) [2-(cyclohex-1-enyl)cyclohexanone],160,260,–,2.4,–
O=C1CCC1 [cyclobutanone],235,171,92,96,–

# Second part, led by results:
Mono 1 rate ([1]; substrate 0.1 mM) [min⁻¹],Mono 1 rate ([1]; substrate 0.5 mM) [min⁻¹],Mono 2 rate ([2]; substrate 0.1 mM) [min⁻¹],Mono 2 rate ([2]; substrate 0.5 mM) [min⁻¹],Compound,time until all cyclohexanone was oxidized [3]
–,1,1.8,1.2,O=C1CCCCCCCCC1 [cyclodecanone],–
9,52,7.6,34,"O=C1CCCCC1=O [1,2-cyclohexanedione]",–
1.2,1.4,0.6,0.9,O=C1CCCCCCCCCC1 [cycloundecanone],–
1.2,7.0,90,120,O=C1CCCC1 [cyclopentanone],–
4.5,18,3.9,8.6,O=C1CCCCCC1 [cycloheptanone],–
0.3,1.2,18,60,"O=C1CCCC(=O)C1 [1,3-cyclohexanedione]",–
